Test results as given in US7709002B1, “Mutated ras peptides for generation of CD8+Cytotoxic T lymphocytes” (The United States of America as represented by the …, priority 1996, dated 2010).
Like-named read-outs stand apart in the source and are kept apart here. Where no end group is shown, it is not given here.

Legend:
[1] = test system: peptide-pulsed autologous EBV-B cells; type: cell-based, human
Description: (§1) Cytotoxic response. Cytotoxicity was examined by a conventional ^51Cr-release assay, as described (6). Briefly, target cells (i.e. T2, C1R-A2, BLCL, K562) were radiolabeled with 200 μCi of Na2[^51Cr]04 (Amersham) for 60 minutes at 37° C., followed by thorough washing to remove unincorporated isotope. Effectors and targets (1×10^4/well) were incubated in 96-well, U-bottomed plates (Costar) at various effector target (E/T) ratios in the absence and presence of peptide (+/−monoclonal antibody (MAb) directed against CD4, CD8 or HLA-A2 molecules (clone BB7.2 from ATCC)) for up to 6 hours. After incubation, supernatants were collected using a Supernatant Collection System (Skatron, Sterling, Va.) and radioactivity measured in a γ-counter (Packard Instruments, Downers Grove, Ill.). Cytotoxic activity was defined as percent specific release of ^51Cr and determined by the equation: [(experimentalcpm−spontaneouscpm)/maximumcpm−spontaneouscpm)]×100. Results were expressed as the mean±SEM of triplicate cultures. The C1R-A2 line is a BLCL transfected with the HLA-A2 gene (obtained from Dr. P. Creswell, Yale University) (Storkus et al, 1987 J. Immunol. 138:1657-1659), and K562 is an erythroleukemia cell line (ATCC, Rockville, Md.) used to measure NK activity.

[2] = biological target: T1, human HLA-A2 (Homo sapiens, UniProt P04439, D140Y/D185E/D98H/E176V/E277Q/G131W/G231S/I119V/I121R/I166T/I218V/L300P/L318F/N151K/N90K/P208A/P217A/Q86G/Q94H/R138H/R169H/T345S); experiment: HLA-A2 binding bioassay on T2 cells (flow cytometry); conditions: for Immunostaining of T2 cells with Isotype control MAb: no peptide = 84.0
T1 construct: The 174CEM.T2 cell line (“T2”), (transport deletion mutant); endogenous in cells; host or cells: 174CEM.T2 (T2) human cell line

[3] = test system: SW480 colon carcinoma cell line (HLA-A2+, rasVal12+); experiment: 51Cr-release cytotoxicity of CTL against SW480 colon carcinoma cells; type: cell-based, human; conditions: IFN-γ 250 U/ml for 24 hr; no lysis without pretreatment (FIG. 10A)
Description: (§2) FIGS. 10A and 10B. Anti-ras Val12-specific CTL from patient 29 lyse SW480 tumor targets in the absence of exogenous peptide. FIG. 10A: Anti-ras Val12-specific CD8^+ CTL from patient 29 were assayed against the SW480 colon carcinoma cell line (HLA-A2^+, rasVal12+) in the absence of exogenous peptide, with or without IFN-γ pretreatment (250 U/ml for 24 hr) of the target cells. CD8^+ CTL reactive with the […] peptide were used as an irrelevant effector cell population. Cytotoxicity was determined by ^51Cr-release, and the results expressed at different effector/target ratios. FIG. 10B: In parallel to 10A, anti-ras or anti-MART-1-specific CTL were assayed against SW480 (±IFN-γ pretreatment) at an effector/target ratio of 10/1 in the absence or presence of exogenous peptide (5 μg/ml). […] Flow cytometric analysis of SW480 cells for expression of HLA-A2: untreated=65.4% with MFI of 29.8; IFN-γ-pretreated=99.5% with MFI of 349.6. Flow cytometric analysis of SW480 cells for expression of ICAM-1: untreated=16.0% with MFI of 30.3; IFN-γ-pretreated=98.6% with MFI of 181.9.
(§3) Cytotoxic response. Cytotoxicity was examined by a conventional ^51Cr-release assay, as described (6). […] After incubation, supernatants were collected using a Supernatant Collection System (Skatron, Sterling, Va.) and radioactivity measured in a γ-counter (Packard Instruments, Downers Grove, Ill.). Cytotoxic activity was defined as percent specific release of ^51Cr and determined by the equation: [(experimentalcpm−spontaneouscpm)/maximumcpm−spontaneouscpm)]×100. Results were expressed as the mean±SEM of triplicate cultures. […]
Studies were also carried out to determine whether such peptide-induced CD8^+ CTL could recognize a processed form of the corresponding mutant ras protein. […] In contrast to the CD4^+ analysis, which measured lymphoproliferation to soluble protein, the CD8^+ CTL analysis reflected lytic ability against SW480 cells harboring the naturally-occurring mutation in the absence of exogenously added peptide. […]

[4] = test system: SW480 cells; experiment: Flow cytometric analysis of SW480 cells for HLA-A2 and ICAM-1 after IFN-γ pretreatment; type: cell-based, human
Description: as §2
Isolation and preparation of peripheral blood mononuclear cells (PBMC). PBMC were isolated from 50 ml of heparinized whole blood by Ficoll-Hypaque density gradient centrifugation (Lymphocyte Separation Medium; Organon-Teknika, Durham, N.C.) prior to the first vaccination and four weeks after each vaccination. After isolation at each interval, PBMC were cryopreserved under liquid nitrogen in a sterile cocktail of 90% heat-inactivated, pooled human AB serum (Valley Biomedical, Winchester, Va.) and 10% dimethyl sulfoxide (DMSO) (Sigma Chemical Co., St. Louis, Mo.). Basic cellular immune responses to mitogens and antigens were first determined using freshly-thawed, unfractionated PBMC, derived pre-vaccination and post-third vaccination. For all functional assays and cell culture preparation, PBMC were suspended in a RPMI-1640 based-medium, supplemented with 15 mM HEPES buffer (pH 7.4), 2 mM L-glutamine, 0.1 mM non-essential amino acids, 1 mM sodium pyruvate, 50 μM β-mercaptoethanol, 50 μg/ml gentamicin (all from GIBCO/BRL, Gaithersburg, Md.) and 10% heat-inactivated human AB serum (Valley Biomedical). Cell surface phenotype of resting and activated lymphocyte cultures was analyzed by direct immunofluorescence. Cells were treated with the appropriate primary monoclonal antibody (MAb) conjugated to fluorescein isothiocyanate (FITC) (from Pharmingen, San Diego, Calif. or Becton Dickinson, Mountain View, Calif.), fixed with 1% paraformaldehyde and evaluated by flow cytometry using a FACScan (Becton Dickinson) for the percentage of positive cells and mean fluorescent intensity (MFI).

[5] = test system: C1R-A2 cell line as target of CD8+ CTL line of RAS patient 32; experiment: 51Cr-release cytotoxicity of CD8+ CTL line of RAS patient 32 against peptide-pulsed C1R-A2 targets; type: cell-based, human; conditions: for % Specific Lysis: E/T 20/1, 6 hr
Source text: (§4) IVS cycles for evaluation of CD8^+ T cell responses from HLA-A2+Patients. Freshly-thawed PBMC (from ras patients 32 and 33), derived pre-vaccination and post-third vaccination, were enriched in T lymphocytes by passage over nylon wool columns (Robbins Scientific, Sunnyvale, Calif.) and then depleted of CD4^+ T cells by negative selection via panning on anti-CD4 MAb-coated T25 flasks (Applied Immune Sciences, Santa Clara, Calif.). For the first IVS cycle, CD8^+ enriched lymphocytes (5×10^5/well) were cultured in 24-well plates with irradiated, autologous PBMC (5×10^6/well) as APC which had been preincubated for 3 hours with the appropriate mutant ras peptide ([…]) plus human β2-microglobulin (10 μg/ml) (Calbiochem, San Diego, Calif.). […] IL-2 (10 U/ml) was added 3 days later. After an additional 7 days, viable cells (2-5×10^5/well) were re-cultured by weekly stimulation with APC pre-pulsed with peptide/β2-microglobulin, and IL-2 added one day later. After the third or fourth IVS cycle, autologous PBMC were replaced with EBV-transformed, autologous BLCL (5×10^5/well) as APC. […] CTL activity was evaluated from cultures 5 to 6 days after Ag restimulation.
as §1

[6] = test system: T2 cell line as target of CD8+ CTL line of RAS patient 32; experiment: 51Cr-release cytotoxicity of CD8+ CTL line of RAS patient 32 against peptide-pulsed T2 targets; type: cell-based, human; conditions: peptide 10 μg/ml, IVS cycle 7 (FIG. 5)
Description: FIG. 5. Cytolytic activity by CD8^+ CTL line of RAS patient 32 is peptide-specific. The CD8^+ CTL line of RAS patient 32 (see FIG. 3) was assayed against the T2 cell line as a target, incubated with and without different ras peptides (10 μg/ml), as shown. In parallel, the extent of NK activity was evaluated against K562 cells. Cytotoxicity was determined by ^51Cr-release, and the results expressed at different E/T ratios following IVS cycle 7. Similar results were observed using the second, independently-derived CD8^+ CTL line as described in Table 6.
as §4
as §1, with “The C1R-A2 line is a BLCL transfected with the HLA-A2 gene (obtained from Dr. P. Creswell, Yale University) (Storkus et al, 1987 J. Immunol. 138:1657-1659), and K562 is an erythroleukemia cell line (ATCC, Rockville, Md.) used to measure NK activity.” left out

[7] = test system: C1R-A2 targets / autologous EBV-B cells as targets of CD8+ CTL line of patient 29; experiment: 51Cr-release cytotoxicity of CD8+ CTL line of patient 29 against C1R-A2 or autologous EBV-B targets; type: cell-based, human; conditions: autologous EBV-B targets, IVS cycle 11, effector/target ratio 10/1 (FIG. 9B)
Description: FIGS. 9A and 9B. Production of a peptide-specific CD8^+ T cell line from post-vaccinated lymphocytes of patient 29. FIG. 9A: A CD8^+ CTL line was established from post-vaccinated PBMC of patient 29 and assayed for peptide specificity against C1R-A2 targets. Cytotoxicity was determined by ^51Cr-release, and the results expressed at different effector/target ratios following IVS cycle 7. FIG. 9B: Using this CD8^+ CTL line, the requirement for HLA-A2 in peptide presentation (by autologous EBV-B cells as targets) was determined in blocking experiments using MAb (clone BB7.2; ascites=1:30 dilution) directed against that molecule (or using an isotype-matched MAb). […] CD4 and CD8 MAbs were as described for FIGS. 8A and 8b. Control lysis in the absence of peptide or in the presence of ras5-14(Gly12) was <3%.
as §3

[8] = peptide 50 μg/ml + β2-microglobulin 3 μg/ml, overnight 37° C., serum-free
[9] = Post-Immune CD8+ culture, IVS cycle 6, 10-mer peptide 10 μg/ml
[10] = Post-Immune CD8+ culture, IVS cycle 7, 10-mer peptide 10 μg/ml
[11] = Post-Immune CD8+ culture, IVS cycle 8, 10-mer peptide 10 μg/ml
[12] = Post-Immune CD8+ culture, IVS cycle 9, 10-mer peptide 10 μg/ml
[13] = Pre-Immune CD8+ culture, IVS cycle 6, 10-mer peptide 10 μg/ml
[14] = Pre-Immune CD8+ culture, IVS cycle 7, 10-mer peptide 10 μg/ml

CC(C)C[C@H](NC(=O)[C@@H](N)CCCCN)C(=O)N[C@H](C(=O)N[C@H](C(=O)N[C@H](C(=O)NCC(=O)N[C@@H](C)C(=O)N[C@@H](CS)C(=O)NCC(=O)N[C@H](C(=O)NCC(=O)N[C@@H](CCCCN)C(=O)N[C@@H](CO)C(=O)O)C(C)C)C(C)C)C(C)C)C(C)C [ras5-17(Cys12)]
Specific cytotoxic response of CD4+ T cell line ([1]; CD4+ T cell line of patient 43): no specific cytotoxic response was detected

CC(C)C[C@H](NC(=O)[C@@H](N)CCCCN)C(=O)N[C@H](C(=O)N[C@H](C(=O)N[C@H](C(=O)NCC(=O)N[C@@H](C)C(=O)N[C@H](C(=O)NCC(=O)N[C@H](C(=O)NCC(=O)N[C@@H](CCCCN)C(=O)N[C@@H](CO)C(=O)O)C(C)C)C(C)C)C(C)C)C(C)C)C(C)C [ras5-17(Val12)]
Specific cytotoxic response of CD4+ T cell line ([1]; CD4+ T cell line of patient 29): did not display specific cytotoxicity

CEA571-579: 9 amino acid peptide, HLA-A2-restricted CEA-specific CD8+ CTL epitope, positive control for HLA-A2 binding (CGIQNSVSA; UniProt P06731 571-579, looked up, fragment)
Immunostaining of T2 cells with Isotype control MAb [2, 8]: 48.4 MFI
Immunostaining of T2 cells with MAb against HLA-A2 ([2]; peptide 50 μg/ml + β2-microglobulin 3 μg/ml, overnight 37° C., serum-free, no peptide = 137.9): 679.5 MFI
Immunostaining of T2 cells with Pan Class I MAb (W6/32) ([2]; peptide 50 μg/ml + β2-microglobulin 3 μg/ml, overnight 37° C., serum-free, no peptide = 230.4): 991.2 MFI

IFN-γ: interferon gamma used to pretreat SW480 target cells
Lysis of SW480 by anti-rasVal12 CTL after pretreatment of targets, no exogenous peptide [3]: demonstrable cytotoxicity was observed at multiple effector/target ratios
SW480 cells positive for HLA-A2 ([4]; IFN-γ-pretreated (250 U/ml, 24 hr), untreated 65.4%): 99.5%
SW480 cells positive for ICAM-1 ([4]; IFN-γ-pretreated, untreated 16.0%): 98.6%
HLA-A2 expression on SW480 ([4]; IFN-γ-pretreated, untreated 29.8): 349.6 MFI
ICAM-1 expression on SW480 ([4]; IFN-γ-pretreated, untreated 30.3): 181.9 MFI

Lys-Leu-Val-Val-Val-Gly-Ala-Asp-Gly-Val [ras5-14(Asp12)]
% Specific Lysis [5, 9]: 24 ± 2%
% Specific Lysis [5, 10]: 26 ± 2%
% Specific Lysis [5, 11]: 67 ± 2%
% Specific Lysis [5, 12]: 68 ± 4%
% Specific Lysis [5, 13]: 14 ± 0%
% Specific Lysis [5, 14]: 0%
Sensitization of T2 targets for lysis (in words) [6]: sensitized the T2 cell line for lysis

YLVVVGADGV [Tyr variant]
Binding activity to HLA-A2 on T2 cells relative to native ras5-14(Asp12) sequence ([2]; less dependency for exogenous β2-macroglobulin): higher binding activity than did the native peptide sequence
Shift in dose-response of target sensitization for lysis vs native peptide, based on half-maximal activity ([5]; anti-ras5-14(Asp12) CTL line, E/T 10/1 (FIG. 11)): three-fold

ras5-14(Gly12): wild-type ras 10-mer peptide positions 5-14 with Gly at position 12 (KLVVVGAGGV)
Immunostaining of T2 cells with Isotype control MAb [2, 8]: 41.3 MFI
Control lysis ([5]; IVS cycle 16, effector/target ratio 10/1 (FIG. 7)): < 3%
% Specific Lysis [5, 9]: 8 ± 0%
% Specific Lysis [5, 10]: 8 ± 1%
% Specific Lysis [5, 11]: 10 ± 1%
% Specific Lysis [5, 12]: 21 ± 2%
% Specific Lysis [5, 13]: 10 ± 1%
% Specific Lysis [5, 14]: 0%
Sensitization of T2 targets for lysis (in words) [6]: failed to stimulate lysis
Control lysis [7]: < 3%
